Source: patent publication US7632666B2 (priority 2005, dated 2009)

Key:
[1] = molecular target: haloalkane dehalogenase LinB L177T (Sphingobium indicum, UniProt D4Z2G1, L177T); assay type: biochemical
[2] = molecular target: haloalkane dehalogenase LinB L177G (Sphingobium indicum, UniProt D4Z2G1, L177G); assay type: biochemical
[3] = molecular target: haloalkane dehalogenase LinB L177W (Sphingobium indicum, UniProt D4Z2G1, L177W); assay type: biochemical
[4] = molecular target: haloalkane dehalogenase LinB L177R (Sphingobium indicum, UniProt D4Z2G1, L177R); assay type: biochemical
[5] = molecular target: haloalkane dehalogenase LinB L177Y (Sphingobium indicum, UniProt D4Z2G1, L177Y); assay type: biochemical
[6] = molecular target: haloalkane dehalogenase LinB L177Q (Sphingobium indicum, UniProt D4Z2G1, L177Q); assay type: biochemical
[7] = molecular target: haloalkane dehalogenase LinB L177K (Sphingobium indicum, UniProt D4Z2G1, L177K); assay type: biochemical
[8] = molecular target: haloalkane dehalogenase LinB L177M (Sphingobium indicum, UniProt D4Z2G1, L177M); assay type: biochemical
[9] = molecular target: haloalkane dehalogenase LinB L177V (Sphingobium indicum, UniProt D4Z2G1, L177V); assay type: biochemical
[10] = molecular target: haloalkane dehalogenase LinB L177F (Sphingobium indicum, UniProt D4Z2G1, L177F); assay type: biochemical
[11] = molecular target: haloalkane dehalogenase LinB L177H (Sphingobium indicum, UniProt D4Z2G1, L177H); assay type: biochemical
[12] = molecular target: haloalkane dehalogenase LinB L177A (Sphingobium indicum, UniProt D4Z2G1, L177A); assay type: biochemical
[13] = molecular target: haloalkane dehalogenase LinB L177D (Sphingobium indicum, UniProt D4Z2G1, L177D); assay type: biochemical
[14] = molecular target: haloalkane dehalogenase LinB L177C (Sphingobium indicum, UniProt D4Z2G1, L177C); assay type: biochemical
[15] = molecular target: haloalkane dehalogenase LinB L177S (Sphingobium indicum, UniProt D4Z2G1, L177S); assay type: biochemical
[16] = molecular target: haloalkane dehalogenase LinB wild type (Sphingobium indicum, UniProt D4Z2G1); assay type: biochemical, Sphingomonas paucimobilis UT26
[17] = molecular target: haloalkane dehalogenase DbjA (Bradyrhizobium diazoefficiens, UniProt P59337); assay type: biochemical, Bradyrhizobium japonicum USDA110; conditions: for Relative enzyme activity (%) 5% of solvent / Relative enzyme activity (%) 10% of solvent / Relative enzyme activity (%) 20% of solvent: pH 8.6
Sequence of haloalkane dehalogenase DbjA (P59337 whole entry): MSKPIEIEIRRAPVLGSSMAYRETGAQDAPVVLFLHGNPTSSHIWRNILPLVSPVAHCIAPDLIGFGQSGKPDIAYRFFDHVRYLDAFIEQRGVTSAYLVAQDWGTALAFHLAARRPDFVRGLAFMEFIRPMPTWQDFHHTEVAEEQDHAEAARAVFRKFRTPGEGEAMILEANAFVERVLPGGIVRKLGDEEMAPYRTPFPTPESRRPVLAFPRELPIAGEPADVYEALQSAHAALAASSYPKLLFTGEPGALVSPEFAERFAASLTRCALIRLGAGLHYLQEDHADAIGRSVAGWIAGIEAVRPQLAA

Sequence of haloalkane dehalogenase LinB L177V (D4Z2G1 whole entry L177V, looked up): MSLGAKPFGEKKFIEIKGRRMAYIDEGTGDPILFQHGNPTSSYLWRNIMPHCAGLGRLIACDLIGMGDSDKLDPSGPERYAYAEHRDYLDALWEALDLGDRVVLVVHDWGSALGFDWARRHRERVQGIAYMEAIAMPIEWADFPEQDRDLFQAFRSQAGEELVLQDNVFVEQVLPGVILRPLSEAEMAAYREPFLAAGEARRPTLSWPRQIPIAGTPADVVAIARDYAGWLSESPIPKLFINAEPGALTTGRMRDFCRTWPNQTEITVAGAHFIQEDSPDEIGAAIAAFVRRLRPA
Sequence of haloalkane dehalogenase LinB L177T (D4Z2G1 whole entry L177T, looked up): as the sequence (D4Z2G1 whole entry L177V, looked up) above, with V177T counted along it
Sequence of haloalkane dehalogenase LinB L177S (D4Z2G1 whole entry L177S, looked up): as the sequence (D4Z2G1 whole entry L177V, looked up) above, with V177S counted along it
Sequence of haloalkane dehalogenase LinB L177G (D4Z2G1 whole entry L177G, looked up): as the sequence (D4Z2G1 whole entry L177V, looked up) above, with V177G counted along it
Sequence of haloalkane dehalogenase LinB L177R (D4Z2G1 whole entry L177R, looked up): as the sequence (D4Z2G1 whole entry L177V, looked up) above, with V177R counted along it
Sequence of haloalkane dehalogenase LinB L177F (D4Z2G1 whole entry L177F, looked up): as the sequence (D4Z2G1 whole entry L177V, looked up) above, with V177F counted along it
Sequence of haloalkane dehalogenase LinB L177A (D4Z2G1 whole entry L177A, looked up): as the sequence (D4Z2G1 whole entry L177V, looked up) above, with V177A counted along it
Sequence of haloalkane dehalogenase LinB L177Y (D4Z2G1 whole entry L177Y, looked up): as the sequence (D4Z2G1 whole entry L177V, looked up) above, with V177Y counted along it
Sequence of haloalkane dehalogenase LinB L177M (D4Z2G1 whole entry L177M, looked up): as the sequence (D4Z2G1 whole entry L177V, looked up) above, with V177M counted along it
Sequence of haloalkane dehalogenase LinB L177Q (D4Z2G1 whole entry L177Q, looked up): as the sequence (D4Z2G1 whole entry L177V, looked up) above, with V177Q counted along it
Sequence of haloalkane dehalogenase LinB wild type (D4Z2G1 whole entry): as the sequence (D4Z2G1 whole entry L177V, looked up) above, with V177L counted along it
Sequence of haloalkane dehalogenase LinB L177W (D4Z2G1 whole entry L177W, looked up): as the sequence (D4Z2G1 whole entry L177V, looked up) above, with V177W counted along it
Sequence of haloalkane dehalogenase LinB L177H (D4Z2G1 whole entry L177H, looked up): as the sequence (D4Z2G1 whole entry L177V, looked up) above, with V177H counted along it
Sequence of haloalkane dehalogenase LinB L177C (D4Z2G1 whole entry L177C, looked up): as the sequence (D4Z2G1 whole entry L177V, looked up) above, with V177C counted along it
Sequence of haloalkane dehalogenase LinB L177D (D4Z2G1 whole entry L177D, looked up): as the sequence (D4Z2G1 whole entry L177V, looked up) above, with V177D counted along it
Sequence of haloalkane dehalogenase LinB L177K (D4Z2G1 whole entry L177K, looked up): as the sequence (D4Z2G1 whole entry L177V, looked up) above, with V177K counted along it

ICCCI [1,3-diidopropane]
Relative activities (% of wt) L177T [1]: 108 % of wt | Relative activities (% of wt) L177G [2]: 164 % of wt | Relative activities (% of wt) L177W [3]: 117 % of wt | Relative activities (% of wt) L177R [4]: 127 % of wt | Relative activities (% of wt) L177Y [5]: 102 % of wt | Relative activities (% of wt) L177Q [6]: 159 % of wt | Relative activities (% of wt) L177K [7]: 132 % of wt | Relative activities (% of wt) L177M [8]: 202 % of wt | Relative activities (% of wt) L177V [9]: 206 % of wt | Relative activities (% of wt) L177F [10]: 130 % of wt | Relative activities (% of wt) L177H [11]: 140 % of wt | Relative activities (% of wt) L177A [12]: 360 % of wt | Relative activities (% of wt) L177D [13]: 209 % of wt | Relative activities (% of wt) L177C [14]: 192 % of wt | Relative activities (% of wt) L177S [15]: 123 % of wt | Relative activities (% of wt) wt1 [16]: 100 % of wt | Relative activities (% of wt) wt2 [16]: 100 % of wt

C1COCCO1 [1,4-dioxane]
DbjA activity in the presence of the solvent in the reaction medium [17]: increasing activity | Relative enzyme activity (%) 5% of solvent [17]: 121.4 ± 3.9% | Relative enzyme activity (%) 10% of solvent [17]: 139.9 ± 7.8% | Relative enzyme activity (%) 20% of solvent [17]: 152.0 ± 9.5%

CCCCBr [1-bromobutane]
Relative activities (% of wt) L177T [1]: 553 % of wt | Relative activities (% of wt) L177G [2]: 380 % of wt | Relative activities (% of wt) L177W [3]: 60 % of wt | Relative activities (% of wt) L177R [4]: 165 % of wt | Relative activities (% of wt) L177Y [5]: 112 % of wt | Relative activities (% of wt) L177Q [6]: 458 % of wt | Relative activities (% of wt) L177K [7]: 201 % of wt | Relative activities (% of wt) L177M [8]: 227 % of wt | Relative activities (% of wt) L177V [9]: 132 % of wt | Relative activities (% of wt) L177F [10]: 243 % of wt | Relative activities (% of wt) L177H [11]: 224 % of wt | Relative activities (% of wt) L177A [12]: 356 % of wt | Relative activities (% of wt) L177D [13]: 347 % of wt | Relative activities (% of wt) L177C [14]: 243 % of wt | Relative activities (% of wt) L177S [15]: 381 % of wt | Relative activities (% of wt) wt1 [16]: 100 % of wt | Relative activities (% of wt) wt2 [16]: 100 % of wt

CCCCCl [1-chlorobutane]
Km [13]: 21.9 mM

CCCCI [1-iodobutane]
Relative activities (% of wt) L177T [1]: 424 % of wt | Relative activities (% of wt) L177G [2]: 344 % of wt | Relative activities (% of wt) L177W [3]: 58 % of wt | Relative activities (% of wt) L177R [4]: 161 % of wt | Relative activities (% of wt) L177Y [5]: 97 % of wt | Relative activities (% of wt) L177Q [6]: 373 % of wt | Relative activities (% of wt) L177K [7]: 131 % of wt | Relative activities (% of wt) L177M [8]: 187 % of wt | Relative activities (% of wt) L177V [9]: 101 % of wt | Relative activities (% of wt) L177F [10]: 126 % of wt | Relative activities (% of wt) L177H [11]: 208 % of wt | Relative activities (% of wt) L177A [12]: 133 % of wt | Relative activities (% of wt) L177D [13]: 259 % of wt | Relative activities (% of wt) L177C [14]: 210 % of wt | Relative activities (% of wt) L177S [15]: 363 % of wt | Relative activities (% of wt) wt1 [16]: 100 % of wt | Relative activities (% of wt) wt2 [16]: 100 % of wt

NC=O [Formamide]
Relative enzyme activity (%) 5% of solvent [17]: 73.4 ± 7.6% | Relative enzyme activity (%) 10% of solvent [17]: 76.3 ± 5.0% | Relative enzyme activity (%) 20% of solvent [17]: 16.3 ± 0.6%

CO [Methanol]
DbjA activity in the presence of the solvent in the reaction medium [17]: increasing activity | Relative enzyme activity (%) 5% of solvent [17]: 93.5 ± 0.9% | Relative enzyme activity (%) 10% of solvent [17]: 128.7 ± 3.5% | Relative enzyme activity (%) 20% of solvent [17]: 160.7 ± 2.0%

CN(C)C=O [N,N-dimethylformamide]
Relative enzyme activity (%) 5% of solvent [17]: 110.5 ± 11.6% | Relative enzyme activity (%) 10% of solvent [17]: 112.6 ± 3.8% | Relative enzyme activity (%) 20% of solvent [17]: 101.9 ± 1.0%

CC(C)=O [acetone]
DbjA activity in the presence of the solvent in the reaction medium [17]: increasing activity | increase of reaction rate compared to that in the glycine buffer [17]: 1.68 times | Relative enzyme activity (%) 5% of solvent [17]: 113.8 ± 7.3% | Relative enzyme activity (%) 10% of solvent [17]: 140.3 ± 2.1% | Relative enzyme activity (%) 20% of solvent [17]: 168.2 ± 3.1%

CC#N [acetonitrile]
Relative enzyme activity (%) 5% of solvent [17]: 117.5 ± 8.9% | Relative enzyme activity (%) 10% of solvent [17]: 124.1 ± 1.0% | Relative enzyme activity (%) 20% of solvent [17]: 0.0 ± 0.0%

OCCO [ethyleneglycol]
Relative enzyme activity (%) 5% of solvent [17]: 87.1 ± 9.8% | Relative enzyme activity (%) 10% of solvent [17]: 80.5 ± 8.9% | Relative enzyme activity (%) 20% of solvent [17]: 109.8 ± 4.0%

C1CCOC1 [tetrahydrofurane]
Relative enzyme activity (%) 5% of solvent [17]: 111.9 ± 13.4% | Relative enzyme activity (%) 10% of solvent [17]: 96.9 ± 9.0% | Relative enzyme activity (%) 20% of solvent [17]: 0.0 ± 0.0%
